This is an account of results in a melting point compilation (Tetko et al.).

By melting point is commonly meant the temperature of the solid-liquid transition.

The compound `O=C(OC(=O)C(=Cc1ccccc1)Cc1ccccc1)C(=Cc1ccccc1)Cc1ccccc1` had a melting point of 107 to 109 °C. `CC(=O)N1CCc2cc([N+](=O)[O-])ccc21` had a melting point of 177 °C. `Nc1nn2c(-c3ccccc3)cc(=O)[nH]c2c1/N=N/c1ccccc1` came in with a melting point of 265 °C. `O=C(O)Cc1ccccc1Oc1ccc(Cl)cc1Cl` had a melting point of 112 °C.

With `Cn1c(=O)c(C2=NNC(=O)C2=NNc2ccc(I)cc2)c(O)c2ccccc21`, the melting point turned out to be 262 °C.

Take `COc1ccc(OCC2CO2)cc1` (configuration not stated): the melting point worked out at 47 °C. With `CCC(=O)c1ccc(O)c(C)c1O`, the melting point fell in the range of 128 to 130 °C. `COC1=C(OC)C(C(COS(=O)(=O)c2ccc(C)cc2)OS(=O)(=O)c2ccc(C)cc2)OC1=O` (configuration not stated) registered a melting point of 144 to 146 °C. For the compound `NC(=NO)c1cccc(C(=O)O)c1`, the melting point lay in the range of 196 to 197 °C. Compound `CCCCC1C(=O)NN(c2ccccc2)C1=O` (configuration not stated) had a melting point of 102 °C. Compound `CCCCCCCCCCCCCCCCCCOP1OCC2(CO1)COP(OCCCCCCCCCCCCCCCCCC)OC2` (configuration not stated) gave a melting point of 41.5 °C.

As to `CCC(C(N)=O)c1ccccc1` (configuration not stated), the melting point is 86 °C.

`O=C(O)c1ncoc1-c1ccccc1` displayed a melting point of 181 °C. `COc1cc(C=C(S)C(=O)O)ccc1O`: the melting point is 161 °C.

`c1ccc2c(c1)ccc1nncn12` had a melting point of 175 to 177 °C.

For `CCOC(=O)C1C(c2ccc(C)cc2)C(C(=O)OCC)C(O)(C(F)(F)F)NC1(O)C(F)(F)F` (configuration not stated), the melting point worked out at 93 °C.

`NS(=O)(=O)c1cc(C(F)(F)F)ccc1C(F)(F)F` came in with a melting point of 147 °C. As for `ClCc1nc(-c2cccs2)no1`, the melting point is 59 to 60 °C. As to `N#CSC#N`, the melting point was 63.5 °C. The same measure for `Cc1ccc(S(=O)(=O)CC(=O)c2ccccc2)cc1`: 109 to 110 °C. The same measure for `N=C(N)N/N=C(\C(=S)Nc1ccc(Br)cc1)c1ccccc1`: 210 to 211 °C. Compound `O=C1CN2CCOC2(c2ccccc2F)c2cc(Br)ccc2N1` (configuration not stated) gave a melting point of 185 °C. Turning to `COC(=O)c1ccc(OCNC(=O)c2ccccc2)cc1`, the melting point was 142 to 143 °C. Compound `NNC(=O)OCc1ccccc1` returned a melting point of 68 °C.

`CCCCCCCCCCCCCCCCCC(=O)OCC(O)CO` (configuration not stated): the melting point is 74 °C. The same measure for `CCOC(=O)c1cc(C(=O)O)c([N+](=O)[O-])cc1[N+](=O)[O-]`: 154 °C; for `O=Cc1ccc2nsnc2c1`: 90 to 92 °C; for `CC1(C)C(C=NO)=[N+]([O-])C(C)(C)N1O`: 157 to 159 °C. Then `CCCCCCCCCCOc1ccc(C(C)=O)cc1`, with 35 to 37 °C; and `NC(=O)c1sc(Nc2ccccc2)nc1N`, with 205 °C; and `O=P(OC(Cl)CCCl)(OC(Cl)CCCl)OC(Cl)CCCl` (configuration not stated), with 26.7 °C. The same measure for `CCN(CCO)c1cccc(C)c1`: -19 °C; for `O=C(O)c1cccc(N=C=S)c1`: 165 °C. As for `NCC1OC(OC2C(N)CC(N)C(O)C2OC2OC(CO)C(O)C2O)C(N)C(O)C1O` (configuration not stated), the melting point was determined as 194 °C. The same measure for `Cc1c(C=O)cnn1-c1ccc(F)cc1`: 113 to 115 °C; for `c1cc2c(ccc3nonc32)nn1`: 139 to 141 °C.

`OC1C=C2CCN3Cc4cc5c(cc4C(C1O)C23)OCO5` (configuration not stated) displayed a melting point of 280 °C. With `Brc1ccc(Br)nn1`, the melting point was in the range of 116 to 117 °C. Turning to `CC=CCCC=CC`, the melting point is -76 °C.

In the case of `Cc1ccc(S(=O)(=O)NC(=O)NN2CCCCCC2)cc1`, the melting point amounted to 170 °C. Compound `O=[N+]([O-])c1cc(O)ccc1I` returned a melting point of 153 to 159 °C. Turning to `CC(C)C(C)C(=O)O` (configuration not stated), the melting point is -1.5 °C. The same measure for `N#Cc1cccc(C[C@H](NC(=O)OCC2c3ccccc3-c3ccccc32)C(=O)O)c1`: 116 °C; for `O=C(O)C=C(CC(=O)O)C(=O)O`: 187 to 191 °C. The same measure for `Cn1nc(C(=O)O)cc1-c1cccs1`: 156 to 158 °C. As to `N#Cc1c(C2CCCCC2)[nH]c(=S)[nH]c1=O`, the melting point is 300 °C.

Take `N#CC(C#N)=Cc1sccc1C=O`: the melting point lay in the range of 126 to 130 °C. As to `O=C1c2ccccc2C(=O)C1c1ccc(Br)cc1`, the melting point came out at 138 °C. The compound `O/N=C(\Cc1ccccc1)c1ccc2ccccc2c1` showed a melting point of 128 to 130 °C. As to `O=[N+]([O-])C(Br)C(Br)c1cccc(C(Br)C(Br)[N+](=O)[O-])c1` (configuration not stated), the melting point is 147 °C. Then `Cc1cc(C2CCCCC2)n(O)c(=O)c1`, with 144 °C; and `COP(=S)(OC)SCc1nc(N)nc(N)n1`, with 165 °C; and `CC(=O)c1cc([N+](=O)[O-])c(Br)s1`, with 105 to 106 °C. `NC(=S)c1ccc2c(c1)OCO2` came in with a melting point of 183 to 186 °C.

Take `O=C(c1ccccc1)c1ccc(-c2ccc(Br)cc2)cc1`: the melting point was determined as 157 °C. In the case of `CC(C(=O)O)c1ccc(-c2ccccc2)c(F)c1` (configuration not stated), the melting point was 110 °C. Then `O=C1C2CC(CN3CCCCC23)C2CCCCN12` (configuration not stated), with 111 °C. `CC(O)C1(C)CCC2=C1CCC1C2CCC2(C)CC(O)CCC12C` (configuration not stated) came in with a melting point of 205 to 207 °C.

For the compound `O=C(OCC1(COC(=O)c2cccnc2)CCCC(COC(=O)c2cccnc2)(COC(=O)c2cccnc2)C1O)c1cccnc1`, the melting point turned out to be 178 °C. The same measure for `Brc1ccc2nccnc2c1`: 54 to 55 °C; for `NNC(=S)NCCN1CCOCC1`: 166 °C. In the case of `CC(Br)C(Br)c1nc(O)n(-c2ccccc2)n1` (configuration not stated), the melting point worked out at 128 °C. Regarding `Brc1cccc(Br)c1Br`, the melting point came out at 87.5 °C.

`O=C1N[C@H]2[C@H](CS[C@H]2CCCCC(=O)ON2C(=O)CCC2=O)N1`: the melting point turned out to be 212 °C. The compound `O=C(O)Cn1cc(Cl)c(=O)c(Cl)c1` came in with a melting point of 259 to 263 °C. In turn, `Cc1ccc(NC(=O)c2cccc3ccccc23)cc1` showed a melting point of 174 °C. On to `CC(C)C(CO)CCC(C)(O)C(O)C(C)C` (configuration not stated), for which the melting point was 60 °C. Turning to `CNC(=O)N(C)c1nnc(C(F)(F)F)s1`, the melting point amounted to 136 °C. `CNC1(c2ccccc2Cl)CCCCC1=O` (configuration not stated) displayed a melting point of 92.5 °C. `NC(=O)C=CC(=O)O` came in with a melting point of 172 °C. On to `CC(C)Cc1ccc(C(=O)C(C)Cl)cc1` (configuration not stated), for which the melting point lay within 52 to 54 °C. In turn, `CCC1Nc2cc(Cl)c(S(N)(=O)=O)cc2S(=O)(=O)N1` (configuration not stated) displayed a melting point of 270 °C. Then `Nc1ccc(C(C/C(=N/O)c2ccccc2)NO)cc1` (configuration not stated), with 178 to 179 °C; and `O=C(C=Cc1ccc(F)cc1)C=Cc1ccc(F)cc1`, with 141 to 146 °C; and `Cc1cc(N)ccc1O`, with 176 °C. The same measure for `COc1ccccc1-n1ncc2c(=O)[nH]cnc21`: 270 to 271 °C; for `C=CCc1cc(OC)c(OC)c(OC)c1OC`: 25 °C. `CC(C)(c1ccc(OCC2CO2)cc1)c1ccc(OCC2CO2)cc1` (configuration not stated) had a melting point of 10 °C.

On to `COC(=O)c1cccc(CN2CCOCC2)c1`, for which the melting point was in the range of 46 to 47 °C. Consider `NC(=S)c1ccno1`, for which the melting point turned out to be 163 °C. `CCOC(=O)CC(=O)c1cccc([N+](=O)[O-])c1` returned a melting point of 75 to 77 °C. The same measure for `Nc1ccc(Cl)nn1`: 210 to 211 °C. For the compound `CC(=O)Oc1ccc2cc(OC(C)=O)ccc2c1`, the melting point is 215 °C. The compound `COC(=O)c1cc2cc3cc(C(=O)OC)c(C(=O)OC)cc3cc2cc1C(=O)OC` yielded a melting point of 220 °C. `Cc1nc(-c2ccccc2)c(C)s1` came in with a melting point of 28 °C. In turn, `CC(CCC(=O)O)C1CCC2C3C(=O)CC4CC(=O)CCC4(C)C3CC(=O)C12C` (configuration not stated) yielded a melting point of 237 °C.

As to `CC(=O)Oc1ccc(N/C=C2\C(=O)C3(C)CCC2C3(C)C)cc1` (configuration not stated), the melting point came to 222 °C. For the compound `NC(=O)CCC(=O)O`, the melting point turned out to be 155 °C. In the case of `COc1ccc(CC(=O)O)c(OC)c1`, the melting point is 110 °C. In turn, `CC(=O)c1c(C)c([N+](=O)[O-])c(C(C)(C)C)c([N+](=O)[O-])c1C` showed a melting point of 136 °C.

Take `OCc1ccc(-c2ccccn2)s1`: the melting point was in the range of 86 to 88 °C. As to `O=[N+]([O-])c1ccccc1OCCCBr`, the melting point lay within 37 to 38 °C.

With `CC(C)(C)C(=O)CCl`, the melting point is -1 °C. In turn, `CC(=O)c1cc(F)cc(Cl)c1` gave a melting point of 53 °C. Then `COc1ccc(C=O)c(OC)c1OC`, with 40 °C; and `Cc1cc(C(F)(F)F)n2nc(-c3ccccc3)cc2n1`, with 174 °C. Turning to `Oc1ccc(S)cc1`, the melting point is 34 °C. On to `CC(=O)OC(c1ccccc1)C(Cl)(Cl)Cl` (configuration not stated), for which the melting point came out at 87.5 °C. `CN1CCN(c2ncc(Br)c(OCc3ccccc3)n2)CC1`: the melting point was determined as 63 °C.

As for `CCCCCCCF`, the melting point was -73 °C. Then `O=Cc1cc(Br)ccc1O`, with 105 °C; and `CSCCC(NC(C)=O)C(=O)O` (racemic), with 115 °C.

`N#CCc1nc2ccccc2[nH]1` registered a melting point of 210 to 215 °C. As for `Nc1cc(C(F)(F)F)ccc1[N+](=O)[O-]`, the melting point was found to be 100 °C. Then `C=COC(C)(C)C`, with -112 °C; and `NC(CC(=O)O)C(F)(F)F` (configuration not stated), with 185 to 190 °C. With `COC(=O)C1=C(C)NC(=S)NC1c1ccc([N+](=O)[O-])cc1` (configuration not stated), the melting point came out at 175 °C. Then `COc1cc(C(N)=O)cc(OC)c1OC`, with 179 °C; and `O=CC(Cl)=Cc1ccccc1`, with 20 to 22 °C. The same measure for `CNc1nnc(C(F)(F)F)s1`: 115 to 117 °C. As to `Clc1cc(Cl)c(Cl)c(Br)c1`, the melting point was found to be 59 °C. Regarding `c1ccc(Cn2cncn2)cc1`, the melting point worked out at 49 °C.
